Experiments:
Format in all cases: biochemical
CYP1A2 = biological target: T1, CYP1A2 (Homo sapiens, UniProt P05177); experiment: Cocktail assay for CYPs, phenacetin O-deethylation (CYP1A2), human liver microsomes; settings: 10 μM phenacetin, 0.1 mg/mL human liver microsomes, 10 min at 37° C.; read-out: CYP IC50 (nM) 1A2
T1 construct: 0.1 mg/mL protein human liver microsomes (BD Gentest); tissue BD Gentest; host or cells: human liver microsomes
T1 sequence (P05177 1-516): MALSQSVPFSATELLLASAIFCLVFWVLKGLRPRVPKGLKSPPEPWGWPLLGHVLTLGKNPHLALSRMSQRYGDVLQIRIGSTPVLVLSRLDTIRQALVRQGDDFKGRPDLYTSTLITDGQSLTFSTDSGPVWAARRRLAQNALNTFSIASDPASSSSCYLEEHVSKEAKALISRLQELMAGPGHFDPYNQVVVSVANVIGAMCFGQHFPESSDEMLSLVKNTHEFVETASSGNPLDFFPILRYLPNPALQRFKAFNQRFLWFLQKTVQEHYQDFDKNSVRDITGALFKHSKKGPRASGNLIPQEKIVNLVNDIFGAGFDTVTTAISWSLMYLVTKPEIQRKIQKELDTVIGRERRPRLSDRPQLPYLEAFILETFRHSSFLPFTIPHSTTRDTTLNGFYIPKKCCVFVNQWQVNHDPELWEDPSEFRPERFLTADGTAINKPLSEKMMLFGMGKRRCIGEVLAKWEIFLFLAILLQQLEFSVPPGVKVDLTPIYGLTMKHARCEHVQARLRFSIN
Method: (§1) Determination of IC50 in a Cocktail Assay for CYPs 1A2, 2C9, 2C19, 2D6 and 3A4:
(§2) This assay was performed in a standard 96-well plate design. IC50 values were calculated from the percent inhibition observed for each test compound at 6 concentrations (for example, 0.0032, 0.016, 0.08, 0.4, 2 and 10 μM). The incubation substrate mix contains 10 μM phenacetin (1A2), 5 μM diclofenac (2C9), 30 μM mephenytoin (2C19), 5 μM dextromethorphan (2D6) and 2 μM midazolam (3A4), 0.1 mg/mL protein human liver microsomes (BD Gentest), 1 mM NAPDH, 3.3 mM MgCl2 and 100 mM potassium phosphate buffer (pH 7.4). The production of the metabolite of each probe substrate was determined after incubation for 10 min at 37° C. Quantitation of the metabolite peak area ratio against an internal standard (tolbutamide) was determined by LC/MS/MS analysis following acetonitrile treatment of the incubations.
(§3) Samples were analyzed in the MRM mode with a SCIEX API-4000 mass spectrometer (Applied Biosystems, Foster City, Calif.), with a Shimadzu LC-20 AD pump (Shimadzu corporation, Kyoto, JP) and a CTC PAL autosampler (Agilent Technologies, Switzerland). A Phenomenex, Luna, 5 nm, 100 A, 2.00×30 mm HPLC column was used for the separation. The mobile phases were: (A) 0.1% formic acid in water and (B) 0.1% formic acid in acetonitrile. The binary gradient was as follows.
(§4) The peak area ratio of the analyte to the internal standard was used to quantify the metabolite. The values of peak area ratios in the presence of test compound were compared to those of maximum or minimum controls and were expressed as % inhibition by interpolating between the maximum and minimum peak area ratios. Incubations with no inhibitor were defined as the maxima. The following equation was used to calculate the % inhibition: [1−[(X−Low control)/(High control−Low control)]]*100 For the IC50 calculation, SigmaPlot was used to plot the mean % inhibition versus the test compound concentrations and for non-linear regression analysis of the data. Depending on the range of data points defining the inhibition curve, the data may have been fit to the 4-parameter logistic equation.

CYP2C19 = biological target: T2, CYP2C19 (Homo sapiens, UniProt P33261); experiment: Cocktail assay for CYPs, mephenytoin 4′-hydroxylation (CYP2C19), human liver microsomes; settings: 30 μM mephenytoin, 0.1 mg/mL human liver microsomes, 10 min at 37° C.; read-out: CYP IC50 (nM) 2C19
T2 construct: 0.1 mg/mL protein human liver microsomes (BD Gentest); tissue BD Gentest; host or cells: human liver microsomes
T2 sequence (P33261 whole entry): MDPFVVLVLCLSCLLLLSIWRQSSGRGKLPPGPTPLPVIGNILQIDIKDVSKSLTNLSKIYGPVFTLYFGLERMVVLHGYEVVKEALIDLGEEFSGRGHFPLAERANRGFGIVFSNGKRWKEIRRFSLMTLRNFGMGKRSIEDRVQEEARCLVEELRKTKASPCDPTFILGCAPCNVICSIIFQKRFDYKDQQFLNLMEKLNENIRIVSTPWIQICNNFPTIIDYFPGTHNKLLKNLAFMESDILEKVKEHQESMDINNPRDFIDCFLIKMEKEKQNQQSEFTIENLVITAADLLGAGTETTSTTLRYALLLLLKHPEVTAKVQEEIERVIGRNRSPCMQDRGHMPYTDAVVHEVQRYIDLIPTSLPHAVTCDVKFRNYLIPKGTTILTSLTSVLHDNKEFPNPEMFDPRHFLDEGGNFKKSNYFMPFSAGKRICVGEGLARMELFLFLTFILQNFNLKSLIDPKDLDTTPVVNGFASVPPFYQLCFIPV
Method: as §1
as §2, with “IC50 values were calculated from the percent inhibition observed for each test compound at 6 concentrations (for example, 0.0032, 0.016, 0.08, 0.4, 2 and 10 μM).” left out
as §3, §4

CYP3A4 [1] = biological target: T3, CYP3A4 (Homo sapiens, UniProt P08684); experiment: IC50 vs CYP3A by inhibition of lopinavir metabolism in human liver microsomes; set-up: 0.01 mg/mL protein human liver microsomes (BD Gentest); tissue BD Gentest; host or cells: human liver microsomes; settings: 1.5 μM lopinavir, 0.01 mg/mL human liver microsomes, 8 min at 37° C.; read-out: CYP IC50 (nM) 3A4 (LPV)
Method: Determination of IC50 vs CYP3A by Measurement of Inhibition of Lopinavir Metabolism
This assay was performed in a standard 96-well plate design. IC50 values were calculated from the percent inhibition observed for each test compound at 6 concentrations (for example, 0.098, 0.391, 1.56, 6.25, 25 and 100 nM). The incubation substrate mix contains 1.5 μM lopinavir, 0.01 mg/mL protein human liver microsomes (BD Gentest), 1 mM NAPDH, 3.3 mM MgCl2 and 100 mM potassium phosphate buffer (pH 7.4). The production of the sum of three hydroxylated metabolites (M2: 6-hydroxy lopinavir, M3: 4-hydroxy lopinavir, M4: 4-hydroxy lopinavir (epimer of M3), Kumar et al., 1999) was determined after incubation for 8 min at 37° C. Quantitation of the metabolite peak area ratio against an internal standard (tolbutamide) was determined by LC/MS/MS analysis following acetonitrile treatment of the incubations.
as §3, with “μm,” for “nm,”
Target sequence in this assay (P08684 2-503): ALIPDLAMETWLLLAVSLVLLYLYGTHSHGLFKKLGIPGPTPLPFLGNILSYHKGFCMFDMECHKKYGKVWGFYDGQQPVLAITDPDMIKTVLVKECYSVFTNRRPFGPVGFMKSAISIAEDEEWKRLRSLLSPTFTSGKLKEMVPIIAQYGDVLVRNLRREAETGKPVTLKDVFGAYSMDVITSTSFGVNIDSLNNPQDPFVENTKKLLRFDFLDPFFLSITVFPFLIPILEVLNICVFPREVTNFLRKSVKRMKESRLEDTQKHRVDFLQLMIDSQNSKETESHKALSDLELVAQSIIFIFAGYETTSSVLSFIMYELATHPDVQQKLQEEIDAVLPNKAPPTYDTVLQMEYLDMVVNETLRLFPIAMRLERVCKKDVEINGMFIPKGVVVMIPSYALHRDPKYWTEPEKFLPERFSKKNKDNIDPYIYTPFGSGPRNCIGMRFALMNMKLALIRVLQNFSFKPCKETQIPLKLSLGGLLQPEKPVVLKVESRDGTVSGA
The peak area ratio of the analyte to the internal standard was used to quantify the metabolite. The values of peak area ratios in the presence of test compound were compared to those of maximum or minimum controls and were expressed as % inhibition by interpolating between the maximum and minimum peak area ratios. Incubations with no inhibitor were defined as the maxima and with 5 μM ketoconazole were defined as the minima.
The following equation was used to calculate the % inhibition: [1−[(X−Low control)/(High control−Low control)]]*100
For the IC50 calculation, SigmaPlot was used to plot the mean % inhibition versus the test compound concentrations and for non-linear regression analysis of the data. Depending on the range of data points defining the inhibition curve, the data may have been fit to the 4-parameter logistic equation.

CYP2D6 = biological target: T4, CYP2D6 (Homo sapiens, UniProt P10635); experiment: Cocktail assay for CYPs, dextromethorphan O-demethylation (CYP2D6), human liver microsomes; settings: 5 μM dextromethorphan, 0.1 mg/mL human liver microsomes, 10 min at 37° C.; read-out: CYP IC50 (nM) 2D6
T4 construct: 0.1 mg/mL protein human liver microsomes (BD Gentest); tissue BD Gentest; host or cells: human liver microsomes
T4 sequence (P10635 whole entry): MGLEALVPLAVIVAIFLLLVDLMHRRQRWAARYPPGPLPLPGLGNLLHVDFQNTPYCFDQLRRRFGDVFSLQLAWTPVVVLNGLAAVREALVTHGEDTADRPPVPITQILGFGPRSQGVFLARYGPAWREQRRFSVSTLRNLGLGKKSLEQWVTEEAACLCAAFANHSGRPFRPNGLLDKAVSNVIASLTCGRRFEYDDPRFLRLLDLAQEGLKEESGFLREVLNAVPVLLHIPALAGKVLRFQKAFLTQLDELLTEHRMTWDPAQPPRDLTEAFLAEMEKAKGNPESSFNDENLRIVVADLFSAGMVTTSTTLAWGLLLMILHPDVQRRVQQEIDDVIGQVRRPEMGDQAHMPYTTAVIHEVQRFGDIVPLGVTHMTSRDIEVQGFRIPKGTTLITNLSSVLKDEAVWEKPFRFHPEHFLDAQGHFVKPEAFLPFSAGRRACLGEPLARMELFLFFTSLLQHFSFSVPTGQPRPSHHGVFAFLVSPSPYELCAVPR
Method: as §1, §2, §3, §4

CYP2C9 = biological target: T5, CYP2C9 (Homo sapiens, UniProt P11712); experiment: Cocktail assay for CYPs, diclofenac 4′-hydroxylation (CYP2C9), human liver microsomes; settings: 5 μM diclofenac, 0.1 mg/mL human liver microsomes, 10 min at 37° C.; read-out: CYP IC50 (nM) 2C9
T5 construct: 0.1 mg/mL protein human liver microsomes (BD Gentest); tissue BD Gentest; host or cells: human liver microsomes
T5 sequence (P11712 whole entry): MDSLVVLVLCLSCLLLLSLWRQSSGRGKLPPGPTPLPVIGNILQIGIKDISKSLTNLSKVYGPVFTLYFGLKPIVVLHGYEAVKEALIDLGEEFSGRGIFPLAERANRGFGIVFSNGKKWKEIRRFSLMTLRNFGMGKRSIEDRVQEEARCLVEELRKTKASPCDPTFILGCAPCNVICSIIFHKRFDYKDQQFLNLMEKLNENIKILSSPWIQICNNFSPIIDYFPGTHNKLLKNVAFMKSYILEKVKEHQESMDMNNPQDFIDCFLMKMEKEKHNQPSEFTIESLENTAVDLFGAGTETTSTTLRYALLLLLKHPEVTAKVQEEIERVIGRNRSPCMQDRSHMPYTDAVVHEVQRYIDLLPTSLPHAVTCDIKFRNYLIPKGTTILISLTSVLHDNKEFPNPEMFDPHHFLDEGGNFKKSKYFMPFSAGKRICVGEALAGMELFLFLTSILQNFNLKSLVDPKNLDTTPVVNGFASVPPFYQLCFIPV
Method: as §1
as §2, with “IC50 values were calculated from the percent inhibition observed for each test compound at 6 concentrations (for example, 0.0032, 0.016, 0.08, 0.4, 2 and 10 μM).” left out
as §3, §4

CYP3A4 [2] = biological target: T3, CYP3A4; experiment: Cocktail assay for CYPs, midazolam 1′-hydroxylation (CYP3A4), human liver microsomes; set-up: 0.1 mg/mL protein human liver microsomes (BD Gentest); tissue BD Gentest; host or cells: human liver microsomes; settings: 2 μM midazolam, 0.1 mg/mL human liver microsomes, 10 min at 37° C.; read-out: CYP IC50 (nM) 3A4 (MDZ)
Method: as §1, §2, §3, §4
Target sequence in this assay (P08684 whole entry): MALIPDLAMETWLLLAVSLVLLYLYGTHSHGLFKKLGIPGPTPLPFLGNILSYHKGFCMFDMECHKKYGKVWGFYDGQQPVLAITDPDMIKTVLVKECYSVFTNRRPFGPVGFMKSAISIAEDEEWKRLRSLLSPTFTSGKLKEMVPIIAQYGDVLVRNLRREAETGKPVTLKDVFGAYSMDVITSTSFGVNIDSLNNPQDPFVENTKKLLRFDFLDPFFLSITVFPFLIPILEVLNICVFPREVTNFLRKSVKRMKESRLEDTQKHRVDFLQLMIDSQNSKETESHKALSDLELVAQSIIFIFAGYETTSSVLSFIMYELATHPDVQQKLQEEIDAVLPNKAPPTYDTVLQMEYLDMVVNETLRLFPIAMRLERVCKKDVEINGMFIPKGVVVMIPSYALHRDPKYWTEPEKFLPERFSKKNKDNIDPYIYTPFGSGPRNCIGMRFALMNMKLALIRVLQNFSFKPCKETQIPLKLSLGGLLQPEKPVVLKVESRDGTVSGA

Compound	IC50 (CYP1A2) [nM]	IC50 (CYP2C19) [nM]	IC50 (CYP3A4 [1]) [nM]	IC50 (CYP2D6) [nM]	IC50 (CYP2C9) [nM]	IC50 (CYP3A4 [2]) [nM]
O=C(C1CC1)N1CCCC1c1ccccc1-c1cncn1CCc1ccc(F)cc1 (single isomer, unassigned) [Compound 44a, (R or S)-cyclopropyl(2-(2-(1-(4-fluorophenethyl)-1H-imidazol-5-yl)phenyl)pyrrolidin-1-yl)methanone]	> 10000	6520	20.1	> 10000	> 10000	46.6
O=C(C1CC1)N1CCCC1c1ccccc1-c1cncn1CCc1ccc(F)cc1 (single isomer, unassigned) [Compound 44b, (R or S)-cyclopropyl(2-(2-(1-(4-fluorophenethyl)-1H-imidazol-5-yl)phenyl)pyrrolidin-1-yl)methanone]	> 10000	7130	6.4	> 10000	5900	6.7
CC(C)NC(=O)N1CCCC1c1ccccc1-c1cncn1CCc1ccc(F)cc1 (single isomer, unassigned) [Compound 46a, (R or S)-2-(2-(1-(4-fluorophenethyl)-1H-imidazol-5-yl)phenyl)-N-isopropyl-pyrrolidine-1-carboxamide]	> 10000	> 10000	45.3	> 10000	> 10000	58.5
CC(C)NC(=O)N1CCCC1c1ccccc1-c1cncn1CCc1ccc(F)cc1 (single isomer, unassigned) [Compound 46b, (R or S)-2-(2-(1-(4-fluorophenethyl)-1H-imidazol-5-yl)phenyl)-N-isopropyl-pyrrolidine-1-carboxamide]	> 10000	> 10000	6.2	> 10000	> 10000	6.1
O=C(c1cccnc1)N1CCCC1c1cccc(-c2cncn2CCc2ccc(F)cc2)c1 (single isomer, unassigned) [Compound 48a, (R or S)-(2-(3-(1-(4-fluorophenethyl)-1H-imidazol-5-yl)phenyl)pyrrolidin-1-yl) (pyridin-3-yl) methanone]	9300	5430	32.3	6800	> 10000	24.2
O=C(c1cccnc1)N1CCCC1c1cccc(-c2cncn2CCc2ccc(F)cc2)c1 (single isomer, unassigned) [Compound 48b, (R or S)-(2-(3-(1-(4-fluorophenethyl)-1H-imidazol-5-yl)phenyl)pyrrolidin-1-yl) (pyridin-3-yl) methanone]	> 10000	4800	> 100	3880	9840	41.2

Results, then the molecule that gave them:

IC50 (CYP1A2) [nM]	IC50 (CYP2C19) [nM]	IC50 (CYP3A4 [1]) [nM]	IC50 (CYP2D6) [nM]	IC50 (CYP2C9) [nM]	IC50 (CYP3A4 [2]) [nM]	Compound
> 10000	3830	29.6	4700	9740	30.1	O=C(C1CCOCC1)N1CCCC1c1cccc(-c2cncn2CCc2ccc(F)cc2)c1 (single isomer, unassigned) [Compound 49a, (R or S)-(2-(3-(1-(4-fluorophenethyl)-1H-imidazol-5-yl)phenyl)pyrrolidin-1-yl)(tetrahydro-2H-pyran-4-yl)methanone]
> 10000	6910	> 100	> 10000	> 10000	58.6	O=C(C1CCOCC1)N1CCCC1c1cccc(-c2cncn2CCc2ccc(F)cc2)c1 (single isomer, unassigned) [Compound 49b, (R or S)-(2-(3-(1-(4-fluorophenethyl)-1H-imidazol-5-yl)phenyl)pyrrolidin-1-yl)(tetrahydro-2H-pyran-4-yl)methanone]
1080	78.6	2	1370	165	8.65	COc1ccc(OC)c(S(=O)(=O)N2CCCC2c2cccc(-c3cncn3CCc3ccc(F)cc3)c2)c1 (single isomer, unassigned) [Compound 53a, (R or S)-5-(3-(1-((2,5-dimethoxyphenyl)sulfonyl)pyrrolidin-2-yl)phenyl)-1-(4-fluorophenethyl)-1H-imidazole]
1470	149	2.1	2330	216	5.47	COc1ccc(OC)c(S(=O)(=O)N2CCCC2c2cccc(-c3cncn3CCc3ccc(F)cc3)c2)c1 (single isomer, unassigned) [Compound 53b, (R or S)-5-(3-(1-((2,5-Dimethoxy-phenyl)sulfonyl)pyrrolidin-2-yl)phenyl)-1-(4-fluorophenethyl)-1H-imidazole]

From US9975888B2, “Aryl linked imidazole and triazole derivatives and methods of use thereof for improving the pharmacokinetics of a drug” (MERCK SHARP & DOHME CORP., priority 2013, dated 2018)
